In ChEMBL document CHEMBL5608200, “Design, synthesis, and evaluation of antitumor activity of 2-arylmethoxy-4-(2-fluoromethyl-biphenyl-3-ylmethoxy) benzylamine derivatives as PD-1/PD-l1 inhibitors” (Eur J Med Chem, 2024):
Calls of active or inactive are those of the source. The calls are words filed in the database; no cut-off is given here.

Key:
[1] = tested on: MC-38; assay: Antitumor activity against mouse MC38 cells expressing hPD-L1 implanted in PD-1/PD-L1 humanized C57BL/6 mouse assessed as downregulation of PD-L1 mRNA expression at 50 mg/kg, IG QD administered for 15 days by RT-PCR analysis; format: functional, organism-based; settings: time 15.0 day
[2] = tested on: HCC827; assay: Cytotoxicity against human HCC827 cells at 1 to 32 uM incubated for 48 hrs by CCK-8 assay; format: functional, cell-based; settings: dose 1-32 µM
[3] = tested on: MC-38; assay: Antitumor activity against mouse MC38 cells expressing hPD-L1 implanted in PD-1/PD-L1 humanized C57BL/6 mouse assessed as upregulation of CXCL10 mRNA expression at 50 mg/kg, IG QD administered for 15 days by RT-PCR analysis; format: functional, organism-based; settings: time 15.0 day
[4] = tested on: Jurkat; assay: Cytotoxicity against human Jurkat T cells at 1 to 32 uM incubated for 48 hrs by CCK-8 assay; format: functional, cell-based; settings: dose 1-32 µM
[5] = Cmax in Sprague-Dawley rat at 50 mg/kg, IG measured upto 48 hrs by LC-MS/MS analysis; format: ADME, organism-based; settings: in vivo, po
[6] = tested on: MC-38; assay: Antitumor activity against mouse MC38 cells expressing hPD-L1 implanted in PD-1/PD-L1 humanized C57BL/6 mouse assessed as upregulation of CXCR3 mRNA expression at 50 mg/kg, IG QD administered for 15 days by RT-PCR analysis; format: functional, organism-based; settings: time 15.0 day
[7] = Toxicity in PD-1/PD-L1 humanized C57BL/6 mouse implanted with mouse MC38 cells expressing hPD-L1 assessed as hepatotoxicity at 50 mg/kg, IG QD administered for 15 days; format: organism-based, MC-38; settings: in vivo, po, 360 h, time 15 day
[8] = Half-life in Sprague-Dawley rat at 10 mg/kg, iv measured upto 48 hrs by LC-MS/MS analysis; format: ADME, organism-based; settings: in vivo
[9] = Apparent volume of distribution in Sprague-Dawley rat at 10 mg/kg, iv measured upto 48 hrs by LC-MS/MS analysis; format: ADME, organism-based; settings: in vivo
[10] = Oral bioavilability in Sprague-Dawley rat at 50 mg/kg measured upto 48 hrs by LC-MS/MS analysis; format: ADME, organism-based; settings: in vivo
[11] = Toxicity in PD-1/PD-L1 humanized C57BL/6 mouse implanted with mouse MC38 cells expressing hPD-L1 assessed as change in lung morphology at 50 mg/kg, IG QD administered for 15 days by H and E staining based inverted fluorescent microscopic assay; format: organism-based, MC-38; settings: in vivo, po, 360 h, time 15 day
[12] = Apparent volume of distribution in Sprague-Dawley rat at 50 mg/kg, IG measured upto 48 hrs by LC-MS/MS analysis; format: ADME, organism-based; settings: in vivo, po
[13] = tested on: MDA-MB-231; assay: Induction of T-cell mediated apoptosis in human MDA-MB-231 cells cocultured with PMA-stimulated Jurkat T cells assessed as mortality rate at 32 uM incubated for 48 hrs by CCK-8 assay; format: functional
[14] = tested on: MDA-MB-231; assay: Cytotoxicity against human MDA-MB-231 cells at 1 to 32 uM incubated for 48 hrs by CCK-8 assay; format: functional, cell-based; settings: dose 1-32 µM
[15] = AUC(0 to t) in Sprague-Dawley rat at 10 mg/kg, iv measured upto 48 hrs by LC-MS/MS analysis; format: ADME, organism-based; settings: in vivo
[16] = Toxicity in PD-1/PD-L1 humanized C57BL/6 mouse implanted with mouse MC38 cells expressing hPD-L1 assessed as nephrotoxicity at 50 mg/kg, IG QD administered for 15 days; format: organism-based, MC-38; settings: in vivo, po, 360 h, time 15 day
[17] = tested on: MC-38; assay: Antitumor activity against mouse MC38 cells expressing hPD-L1 implanted in PD-1/PD-L1 humanized C57BL/6 mouse assessed as increase in proportion of CD3+/CD8+ T cells at 50 mg/kg, IG QD administered for 15 days by flow cytometry analysis; format: functional, organism-based; settings: time 15.0 day
[18] = tested on: MC-38; assay: Antiproliferative activity against mouse MC38 cells expressing hPD-L1 incubated for 48 hrs by CCK8 assay; settings: MC-38, 48 h
[19] = tested on: MC-38; assay: Antitumor activity against mouse MC38 cells expressing hPD-L1 implanted in PD-1/PD-L1 humanized C57BL/6 mouse assessed as upregulation of CXCL9 mRNA expression at 50 mg/kg, IG QD administered for 15 days by RT-PCR analysis; format: functional, organism-based; settings: time 15.0 day
[20] = tested on: MDA-MB-231; assay: Induction of T-cell mediated apoptosis in human MDA-MB-231 cells cocultured with PMA-stimulated Jurkat T cells assessed as mortality rate at 8 uM incubated for 48 hrs by CCK-8 assay; format: functional
[21] = tested on: MC-38; assay: Antitumor activity against mouse MC38 cells expressing hPD-L1 implanted in PD-1/PD-L1 humanized C57BL/6 mouse assessed as tumor growth inhibition at 50 mg/kg, IG; format: functional; settings: MC-38, po, read-out: TGI
[22] = Toxicity in PD-1/PD-L1 humanized C57BL/6 mouse implanted with mouse MC38 cells expressing hPD-L1 assessed as change in kidney morphology at 50 mg/kg, IG QD administered for 15 days by H and E staining based inverted fluorescent microscopic assay; format: organism-based, MC-38; settings: in vivo, po, 360 h, time 15 day
[23] = tested on: MC-38; assay: Antitumor activity against mouse MC38 cells expressing hPD-L1 implanted in PD-1/PD-L1 humanized C57BL/6 mouse assessed as upregulation of perforin expression at 50 mg/kg, IG QD administered for 15 days by immunohistochemistry analysis; format: functional, organism-based; settings: time 15.0 day
[24] = Cytotoxicity against human PBMCs at 1 to 4 uM by CCK-8 assay; format: toxicity, cell-based; settings: pbmc, dose 1-4 µM
[25] = Clearance in Sprague-Dawley rat at 10 mg/kg, iv measured upto 48 hrs by LC-MS/MS analysis; format: ADME, organism-based; settings: in vivo
[26] = Toxicity in PD-1/PD-L1 humanized C57BL/6 mouse implanted with mouse MC38 cells expressing hPD-L1 assessed as change in spleen morphology at 50 mg/kg, IG QD administered for 15 days by H and E staining based inverted fluorescent microscopic assay; format: organism-based, MC-38; settings: in vivo, po, 360 h, time 15 day
[27] = tested on: HCC827; assay: Induction of T-cell mediated apoptosis in human HCC827 cells cocultured with PMA-stimulated Jurkat T cells assessed as mortality rate at 32 uM incubated for 48 hrs by CCK-8 assay; format: functional
[28] = tested on: A549; assay: Induction of T-cell mediated apoptosis in human A549 cells cocultured with PMA-stimulated Jurkat T cells assessed as mortality rate at 1 to 32 uM incubated for 48 hrs by CCK-8 assay; format: functional, cell-based; settings: dose 1-32 µM
[29] = tested on: MC-38; assay: Antitumor activity against mouse MC38 cells expressing hPD-L1 implanted in PD-1/PD-L1 humanized C57BL/6 mouse assessed as increase in ratio of CD3+/CD8+ to CD3+/CD4+ cells at 50 mg/kg, IG QD administered for 15 days by flow cytometry analysis; format: functional, organism-based; settings: time 15.0 day
[30] = Toxicity in PD-1/PD-L1 humanized C57BL/6 mouse implanted with mouse MC38 cells expressing hPD-L1 assessed as animal death at 50 mg/kg, IG QD administered for 15 days; format: organism-based, MC-38; settings: in vivo, po, 360 h, time 15 day
[31] = AUC(0 to infinity) in Sprague-Dawley rat at 10 mg/kg, iv measured upto 48 hrs by LC-MS/MS analysis; format: ADME, organism-based; settings: in vivo
[32] = Cmax in Sprague-Dawley rat at 10 mg/kg, iv measured upto 48 hrs by LC-MS/MS analysis; format: ADME, organism-based; settings: in vivo
[33] = tested on: HCC827; assay: Induction of T-cell mediated apoptosis in human HCC827 cells cocultured with PMA-stimulated Jurkat T cells assessed as mortality rate at 4 uM incubated for 48 hrs by CCK-8 assay; format: functional

In the case of `N#Cc1cncc(COc2cc(OCc3cccc(-c4ccc5c(c4)OCCO5)c3C(F)F)ccc2CNCCO)c1`, the Activity [1] is reported as “Active”, the Activity [2] is reported as “inactive” and the Activity [3] is reported as “Active”. The Activity [4] was “inactive”, the Cmax [5] was 13500 ng/mL and the Activity [6] was “Active”. The Activity [7] was “Non-Toxic”, the t1/2 [8] was 2.47 h and the Vz [9] was 10.1 L/kg. The bioavailability [10] was 65.3%, the Activity [11] was “Non-Toxic” and the Vz [12] was 31.76 L/kg. The Activity [13] was 64%, the Activity [14] was “inactive” and the AUC(0-t) at 48 h [15] was 12800 ng·h/mL. For the same compound, the Activity [16] was “Non-Toxic”, the Activity [17] was “Active” and the IC50 [18] was greater than 8 µM. The Activity [19] was “Active”, the Activity [20] was 45.9% and the inhibition in vivo at 50 mg/kg [21] was 62.4%. The Activity [22] was “Non-Toxic”, the Activity [23] was “Active” and the Activity [24] was “Non-Toxic”. The CL [25] was 12 mL/min/kg, the Activity [26] was “Non-Toxic” and the Activity [27] was 71.2%. The Activity [28] was “inactive”, the Activity [29] was “Active” and the Activity [30] was “Non-Toxic”. The AUC(0-inf) [31] was 13900 ng·h/mL, the Cmax [32] was 4560 ng/mL and the Activity [33] was 40.4%.
